From US20250026741A1, “INHIBITORS OF THE ONCOGENIC SHP2 PHOSPHATASE AND USES THEREOF” (Sanford Burnham Prebys Medical Discovery Institute, priority 2021, published 2025)
pIC50: −log10 of the molar value.

Columns and labels:
[1] = system: p-ERK1/2 in U-937 AML cells (SHP2 G60R); experiment: Phospho-ERK1/2 immunoblot analysis, U-937; type: cell-based; conditions: U-937, 24 h; #02 1, 3, 10, 30 μM; RMC-4550 1 μM
From the text: (§1) Oncogenic gain-of-function mutations in SHP2 drive leukemogenesis in a significant number of leukemia patients. However, due to their unique mechanism of action, the existing SHP2 allosteric inhibitors lack activity against the most common SHP2 oncogenic variants. Thus, we tested whether #02 can inhibit the growth of leukemia cells expressing oncogenic SHP2 variants. […] Using the U-937 AML cell line, which harbors a G60R oncogenic mutation in SHP2, we treated cells with either #02 or RMC-4550 at various concentrations, ranging from 0.123 to 30 μM (FIG. 4A). […] We also assessed the effects of #02 and RMC-4550 on ERK1/2 activation in the SHP2 mutant U-937 cell line. Similar to the immunoblot experiments described above, U-937 AML cells were treated with either vehicle control (DMSO), #02 (1, 3, 10, or 30 μM), or with RMC-4550 (1 μM) for 24 h and processed for p-ERK1/2 immunoblot analysis (FIG. 4B).
Total protein extracts were prepared in modified RIPA lysis buffer (25 mM Tris-HCl, pH 7.4, 10% glycerol, 0.2% Triton™ X-100, 150 mM NaCl, 2 mM Na3VO4, 1 mM EDTA) containing a protease inhibitor cocktail (Roche Applied Science, Indianapolis, IN). […] Densitometric quantitation of immunoblots was performed using Image Studio Lite Software. Changes of phosphorylated ERK1/2 to total ERK1/2 rations are expressed as percentage of the vehicle-treated controls. […]

[2] = system: patient-derived AML cells; experiment: Viability of AML patient-derived cells; type: cell-based, human; conditions: 10 μM, two patient samples, 2 d, 4 d, or 6 d
From the text: Patient-derived AML cells were obtained from Carol Burian and Dr. James Mason (Scripps MD Anderson, La Jolla, CA) under approved IRB protocol 13-6180. Peripheral blood mononuclear cells (PBMCs) were isolated by traditional Ficoll-Paque™ PLUS (17-1440-02, GE Healthcare) centrifugation according to the manufacturer's instructions, and red blood cells were lysed using RBC Lysis Buffer (Alfa Aesar, cat. #J62990). Final PBMCs were resuspended in Bambanker serum-free freezing medium (Wako Pure Chemical Industries, Ltd.) and stored frozen before cell viability was assessed as described below.
(§2) Viability of AML, esophageal carcinoma, and TF-1 cells was assessed using the ATP-depletion assay CellTiter-Glo® (Promega). Cells were harvested at 1×10^6/mL to 2×10^6 cells/mL with cell numbers determined by trypan blue using the Countess Cell counter (Thermo Scientific) and resuspended in culture media. 3K cells (in 20 mL) were seeded in a 384-well format white, clear bottom microplate (#781098, Greiner) spotted with test compound or vehicle control (DMSO) using an Echo 555 Liquid Handler. […] Luminescence was read on a Tecan Spark® Multimode Microplate Reader and data analyzed using Graph Pad Prism software.

[3] = system: U-937 AML cells harboring G60R oncogenic mutation in SHP2; experiment: Cell viability assay, U-937 (SHP2 G60R); type: cell-based; conditions: U-937 cells (SHP2 G60R), 0.123 to 30 μM, 3 d
From the text: as §1
as §2, with “media.” for “media. 3K cells (in 20 mL) were seeded in a 384-well format white, clear bottom microplate (#781098, Greiner) spotted with test compound or vehicle control (DMSO) using an Echo 555 Liquid Handler.”

[4] = system: p-ERK1/2 in MOLM-13 AML cells; experiment: Phospho-ERK1/2 immunoblot analysis, MOLM-13; type: cell-based; conditions: MOLM-13, 3 h treatment; #02 3, 10, 30 μM; RMC-4550 1 μM
Procedure: Because SHP2 activity is critical for ERK activation, we used phospho-ERK1/2 (p-ERK1/2) as a more direct readout of SHP2 inhibitor efficacy. […] However, a greater effect of #02 was observed after 24 h treatment. […] This p-ERK rebound in MOLM-13 cells treated with RMC-4550 is reminiscent of previously reported data from human hepatoma Hep3B cells treated with SHP099.
Total protein extracts were prepared in modified RIPA lysis buffer (25 mM Tris-HCl, pH 7.4, 10% glycerol, 0.2% Triton™ X-100, 150 mM NaCl, 2 mM Na3VO4, 1 mM EDTA) containing a protease inhibitor cocktail (Roche Applied Science, Indianapolis, IN). Equal amounts of protein were separated on 4-12% (p-ERK1/2 blots) or 4-20% (SHP2 blots) Bis-Tris gels by SDS-PAGE and transferred to nitrocellulose (p-ERK1/2 blots) or 0.2 μm PVDF (SHP2 blots) membranes. Membranes were blocked in 5% dry milk (Bio-Rad, Hercules, CA) in TBS-Tween 20 (0.1% vol/vol; TBS-T) for 1 h at room temperature. Protein-bound membranes were incubated with indicated primary antibody overnight at 4° C. After washing three times with TBS-T, membranes were incubated for 1 h with horseradish peroxidase-conjugated secondary antibody, then visualized by an ECL Prime detection system (GE Healthcare). Immunoblotting experiments were carried out at least three times and representative images are shown. Densitometric quantitation of immunoblots was performed using Image Studio Lite Software. Changes of phosphorylated ERK1/2 to total ERK1/2 rations are expressed as percentage of the vehicle-treated controls. The following antibodies were used: Phospho-Erk1/2 Ab, Cell Signaling, #9101S; total Erk1/2 Ab, Cell Signaling, #9102S; SHP2 Ab, Bethyl, A301-544A, lot #1; GAPDH (14C10) mAb, Cell Signaling, #2118S, lot #14.

[5] = system: MOLM-13 AML cells (expressing WT SHP2); experiment: Cell viability assay (CellTiter-Glo), MOLM-13; type: cell-based; conditions: regular MOLM-13 cells, 72 h, CRISPR comparison experiment
Procedure: (§3) Next, we performed an 11-day colony formation assay with TNBC cells treated with #02 or SHP099 at 5, 10, or 20 μM (FIG. 3D).
Finally, we evaluated the selectivity of our top two compounds, #01 and #02, on MOLM-13 AML cells in which SHP2 was depleted using CRISPR-Cas9 knock-out (KO). High-efficiency Cas9-editing MOLM-13 cells were generated by transducingMOLM-13 cells with a Cas9 lentiviral construct. Stable clones were tested for editing efficiency by performing TIDE analysis (45), and these MOLM13-Cas9 cells were transduced with a lentiviral construct containing an AAVS1 single guide RNA (sgRNA) and an mCherry reporter for bulk-sorting of cells with successful AAVS1 editing. […] Cells were treated with inhibitors at various concentrations (ranging from […] to 58 nM) or vehicle control (DMSO) for 72 h, before cell viability was assessed.
Viability of AML, esophageal carcinoma, and TF-1 cells was assessed using the ATP-depletion assay CellTiter-Glo® (Promega). Cells were harvested at 1×10^6/mL to 2×10^6 cells/mL with cell numbers determined by trypan blue using the Countess Cell counter (Thermo Scientific) and resuspended in culture media. […] Luminescence was read on a Tecan Spark® Multimode Microplate Reader and data analyzed using Graph Pad Prism software. […]

[6] = system: BT-549 triple-negative breast cancer cells; experiment: TNBC cell viability assay (CellTiter-Glo), BT-549; type: cell-based; conditions: BT-549 cells, various concentrations
Procedure: as §3
(§4) Triple-negative breast cancer cell viability was assessed using the ATP-depletion assay CellTiter-Glo (Promega). Briefly, 2.5K cells in […] media (RPMI+10% FBS+1× Penicillin-Streptomycin (Omega Scientific)) were seeded per well of a 384-well tissue culture treated plate (Greiner). 25 nL of 1000× test compound were added using a Labcyte Echo acoustic dispenser and the cells incubated for 5 days before addition of […] of CellTiter-Glo reagent as described by the manufacturer. Luminescence was detected on a BioTek Synergy 2 microplate reader and the values normalized to those of vehicle (DMSO) treated controls before being plotted using GraphPad Prism.

[7] = system: MDA-MB-468 triple-negative breast cancer cells; experiment: TNBC cell viability assay (CellTiter-Glo), MDA-MB-468; type: cell-based; conditions: MDA-MB-468 cells, various concentrations
Procedure: as §3, §4

[8] = system: TNBC cells (BT-549 and MDA-MB-468); experiment: 11-day colony formation assay; type: cell-based; conditions: 5, 10, or 20 μM, 11 days
Procedure: as §3
MDA-MB-468 and […] triple-negative breast cancer cells were maintained in DMEM+10% FBS supplemented with 1× Penicillin-Streptomycin/L-Glutamine (Omega Scientific). 1.5K cells (in […]) were seeded per well of a standard 24-well tissue culture plate (Falcon) and allowed to adhere for 24 h, before the addition of drug(s) as described. After a further 96 h, media was replaced with fresh media containing the same test compounds and concentrations. After 11 days, media was removed and cells stained with 0.5% Crystal Violet (in 20% methanol) for 20 min with agitation @ 80 rpm. Stain was removed and plates with stained cells were washed by being submerged in excess deionized water and allowed to air dry overnight before imaging.

[9] = system: MLL-AF10 leukemia cells expressing E76K mutant SHP2; experiment: Cell viability assay, MLL-AF10 cells expressing E76K mutant SHP2; type: cell-based, mouse
Procedure: (§5) Cell viability assays of SHP099, #01, and #02 against mouse MLL-AF10 leukemia cells were conducted. Two MLL-AF10 cell lines were employed, one expressing wild-type SHP2, and the other expressing E76K mutant SHP2.

[10] = system: MLL-AF10 leukemia cells expressing wild-type SHP2; experiment: Cell viability assay, MLL-AF10 cells expressing wild-type SHP2; type: cell-based, mouse
Procedure: as §5

[11] = system: MOLM-13-Cas9-mCherry cells with SHP2 KO; experiment: SHP2 CRISPR-Cas9 knockout inhibitor selectivity assay (cell viability); type: cell-based; conditions: MOLM-13-Cas9-mCherry SHP2 KO cells, 72 h
Procedure: Finally, we evaluated the selectivity of our top two compounds, #01 and #02, on MOLM-13 AML cells in which SHP2 was depleted using CRISPR-Cas9 knock-out (KO). High-efficiency Cas9-editing MOLM-13 cells were generated by transducingMOLM-13 cells with a Cas9 lentiviral construct. Stable clones were tested for editing efficiency by performing TIDE analysis (45), and these MOLM13-Cas9 cells were transduced with a lentiviral construct containing an AAVS1 single guide RNA (sgRNA) and an mCherry reporter for bulk-sorting of cells with successful AAVS1 editing. SHP2 KO was achieved by transducing MOLM-13-Cas9-mCherry cells with a lentivirus containing SHP2 dual sgRNAs, resulting in ˜80% reduction of SHP2 protein levels (FIG. 3G). #01, #02, and the SHP2 allosteric inhibitor SHP099 were tested in parallel on regular MOLM-13 cells (expressing WT SHP2) and MOLM-13-Cas9-mCherry cells with SHP2 KO. Cells were treated with inhibitors at various concentrations (ranging from […] to 58 nM) or vehicle control (DMSO) for 72 h, before cell viability was assessed.
High-efficiency Cas9-editing MOLM-13 cells were generated by transducing MOLM-13 cells with the pLenti-Cas9-blasticidin construct (Addgene plasmid #52962) and selecting single stable clones using flow-sorting. Clones were then tested for editing efficiency by performing TIDE analysis (45). These MOLM13-Cas9 cells were then transduced with a lentiviral construct containing an AAVS sgRNA and an mCherry reporter out of frame and downstream of an AAVS sgRNA targeting site. […]
For SHP2 KO, dual sgRNAs targeting SHP2 were cloned in the pLentiGuide puro vector (Addgene plasmid #52963) using a published protocol (50). […] SHP2 KO was evaluated by immunoblotting. […] For SHP2 KO, MOLM-13-Cas9-mCherry cells were seeded in nontreated 6-well-plates ([…] in 2.5 mL), with cell numbers determined by trypan blue using the Countess Cell counter (Thermo Scientific). […] Cell viability was assessed using the ATP-depletion assay CellTiter-Glo® (Promega) as described above, and data were analyzed using GraphPad Prism software.

SMILES | ERK1/2 activation (p-ERK1/2 levels) [1] | effect on growth of patient-derived AML samples [2] | pIC50 [3] | ERK1/2 activation (p-ERK1/2 levels) [4] | pIC50 [5] | effect on TNBC cell viability [6] | effect on TNBC cell viability [7] | effect on colony formation [8] | cell viability IC50 [9] | pIC50 [10] | effect on viability of SHP2 KO cells [11]
Cc1nc(N2CCC3(CC2)CO[C@@H](C)[C@H]3N)c(CO)nc1-c1cccc(Cl)c1Cl [RMC-4550, reference compound] | a decrease in p-ERK1/2 levels was not detectable | only affected the growth of sample 2 | 4.48 | highly effective in impeding ERK1/2 activation |  |  |  |  |  |  | 
CC1(N)CCN(c2cnc(-c3cccc(Cl)c3Cl)c(N)n2)CC1 [SHP099, reference compound] |  |  |  |  | 5.03 | very minor effect on TNBC cell viability | very minor effect on TNBC cell viability | very weak effect on colony formation | insufficient for an IC50 value to be determined | 5.40 | either no effect, or a greatly reduced effect
